Data taken from patent publication US11548888B2, “KRas G12C inhibitors” (Mirati Therapeutics, Inc., priority 2019, dated 2023).

Biological target: T1, KRas G12C (Homo sapiens, UniProt P01116, G12C)
T1 construct: NCI-H358 cells (ATCC CRL-5807) express KRas G12C
Assay: Inhibition of KRas G12C-dependent cell growth: Phospho-ERK in NCI-H358 cells
Type: cell-based
Conditions: NCI-H358 cells expressing KRas G12C; Phospho-ERK (Thr202/Tyr204) normalized to GAPDH; 3 hours compound; 4 parameter fit
Procedure: The cellular inhibition of KRAs G12C by exemplary compounds of the present invention was determined by measuring the amount of a downstream marker of KRas activity, phosphorylated ERK (“Phospho-ERK”).
NCI-H358 cells (ATCC CRL-5807) express KRas G12C and were grown in RPMI medium supplemented with 10% fetal bovine serum, penicillin/streptomycin and 10 mM HEPES. Cells were plated in poly-D-Lysine coated 96-well plates at a concentration of 50,000 cells/well and allowed to attach for 8-12 hours. Diluted compounds were then added at a final concentration of 0.5% DMSO. After 3 hours, the medium was removed, 150 μL of 4% formaldehyde was added and the plates were incubated for 20 minutes. The plates were washed with PBS, and permeabilized using 150 μL of ice cold 100% methanol for 10 minutes. Non-specific antibody binding to the plates was blocked using 100 μL Licor Blocking Buffer (Li-Cor Biotechnology, Lincoln Nebr.) for 1 hour at room temperature. Positive control samples and samples lacking cells were parallel processed with test samples as standards.
The amount Phospho-ERK was determined using an antibody specific for the phosphorylated form of ERK and compared to the amount of GAPDH. Primary antibodies used for detection were added as follows: Phospho-ERK (Cell Signaling cs9101) diluted 1:500 and GAPDH (Millipore MAB374) diluted 1:5000 in Licor block+0.05% Tween 20. The plates were incubated for 2 hours at room temperature. The plates were washed with PBS+0.05% Tween 20.
Secondary antibodies used to visualize primary antibodies were added as follows: Anti-rabbit-680 diluted 1:1000 and Anti-mouse-800 diluted 1:1000 in Licor Block+0.05% Tween 20 and incubated for 1 hour at room temperature. The plates were washed with PBS+0.05% Tween 20. A 100 μL aliquot of PBS was added to each well and the plates were read on a LICOR AERIUS plate reader.
The pERK(Thr202/Tyr204) signal was normalized with the GAPDH signal and percent of DMSO control values were calculated. IC50 values were generated using a 4 parameter fit of the dose response curve.

T1 sequence (P01116 1-188 isoform P01116-2 G12C): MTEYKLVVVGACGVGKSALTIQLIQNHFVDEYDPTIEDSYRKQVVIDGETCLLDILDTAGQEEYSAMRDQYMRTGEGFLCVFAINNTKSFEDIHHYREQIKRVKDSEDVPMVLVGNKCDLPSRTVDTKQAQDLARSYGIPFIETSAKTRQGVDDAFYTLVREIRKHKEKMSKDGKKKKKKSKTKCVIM

| SMILES | IC50 [nM] |
| --- | --- |
| CN1CCC[C@H]1COc1nc(N2CCN(C(=O)/C=C/CF)[C@@H](CC#N)C2)c2cnc(-c3cccc4cccc(Cl)c34)c(F)c2n1 [Example 23, 2-((S)-4-(7-(8-chloronaphthalen-1-yl)-8-fluoro-2-(((S)-1-methylpyrrolidin-2-yl)methoxy)pyrido[4,3-d]pyrimidin-4-yl)-1-((E)-4-fluorobut-2-enoyl)piperazin-2-yl)acetonitrile] | 18 |
| Cc1cccc2cccc(-c3ncc4c(N5CCN(C(=O)/C=C/CF)[C@@H](CC#N)C5)nc(OC[C@@H]5CC(F)(F)CN5C)nc4c3F)c12 [Example 24, 2-((S)-4-(2-(((S)-4,4-difluoro-1-methylpyrrolidin-2-yl)methoxy)-8-fluoro-7-(8-methylnaphthalen-1-yl)pyrido[4,3-d]pyrimidin-4-yl)-1-((E)-4-fluorobut-2-enoyl)piperazin-2-yl)acetonitrile] | 109 |
| CN1CC(F)(F)C[C@H]1COc1nc(N2CCN(C(=O)/C=C/CF)[C@@H](CC#N)C2)c2cnc(-c3cccc4cccc(Cl)c34)c(F)c2n1 [Example 25, 2-((S)-4-(7-(8-chloronaphthalen-1-yl)-2-(((S)-4,4-difluoro-1-methylpyrrolidin-2-yl)methoxy)-8-fluoropyrido[4,3-d]pyrimidin-4-yl)-1-((E)-4-fluorobut-2-enoyl)piperazin-2-yl)acetonitrile] | 13 |

The remaining compounds from weak to strong by IC50, led by results:

| IC50 [nM] | SMILES |
| --- | --- |
| 260 | C=C(F)C(=O)N1CCN(c2nc(OCCCN3C[C@@H]4C[C@H]3CO4)nc3c(F)c(-c4cccc5cccc(C)c45)ncc23)C[C@@H]1CC#N [Example 28, 2-[(2S)-4-[8-fluoro-7-(8-methyl-1-naphthyl)-2-[3-[(1S,4S)-2-oxa-5-azabicyclo[2.2.1]heptan-5-yl]propoxy]pyrido[4,3-d]pyrimidin-4-yl]-1-(2-fluoroprop-2-enoyl)piperazin-2-yl]acetonitrile] |
| 85 | C=C(F)C(=O)N1CCN(c2nc(OCCCN3C[C@@H]4C[C@H]3CO4)nc3c(F)c(-c4cccc5cccc(Cl)c45)ncc23)C[C@@H]1CC#N [Example 29, 2-[(2S)-4-[7-(8-chloro-1-naphthyl)-8-fluoro-2-[3-[(1S,4S)-2-oxa-5-azabicyclo[2.2.1]heptan-5-yl]propoxy]pyrido[4,3-d]pyrimidin-4-yl]-1-(2-fluoroprop-2-enoyl)piperazin-2-yl]acetonitrile] |
| 55 | CO[C@@H]1C[C@@H](COc2nc(N3CCN(C(=O)/C=C/CF)[C@@H](CC#N)C3)c3cnc(-c4cccc5cccc(C)c45)c(F)c3n2)N(C)C1 [Example 26, 2-[(2S)-1-[(E)-4-fluorobut-2-enoyl]-4-[8-fluoro-2-[[(2S,4R)-4-methoxy-1-methyl-pyrrolidin-2-yl]methoxy]-7-(8-methyl-1-naphthyl)pyrido[4,3-d]pyrimidin-4-yl]piperazin-2-yl]acetonitrile] |
| 38 | C=C(F)C(=O)N1CCN(c2nc(OC[C@@H]3C[C@@H](OC)CN3C)nc3c(F)c(-c4cccc5cccc(Cl)c45)ncc23)C[C@@H]1CC#N [Example 22, 2-[(2S)-4-[7-(8-chloro-1-naphthyl)-8-fluoro-2-[[(2S,4R)-4-methoxy-1-methyl-pyrrolidin-2-yl]methoxy]pyrido[4,3-d]pyrimidin-4-yl]-1-(2-fluoroprop-2-enoyl)piperazin-2-yl]acetonitrile] |
| 30 | CO[C@@H]1C[C@@H](COc2nc(N3CCN(C(=O)/C=C/CF)[C@@H](CC#N)C3)c3cnc(-c4cccc5cccc(Cl)c45)c(F)c3n2)N(C)C1 [Example 27, 2-[(2S)-4-[7-(8-chloro-1-naphthyl)-8-fluoro-2-[[(2S,4R)-4-methoxy-1-methyl-pyrrolidin-2-yl]methoxy]pyrido[4,3-d]pyrimidin-4-yl]-1-[(E)-4-fluorobut-2-enoyl]piperazin-2-yl]acetonitrile] |
